Experimental data reported in ChEMBL document CHEMBL1142627, “Ribofuranosyl triazolone: a natural product herbicide with activity on adenylosuccinate synthetase following phosphorylation” (J Nat Prod, 2000).
Active and inactive are the calls of the source. The rule behind the calls is not given here.

Assays:
BMS = assay: Inhibition of Zea mays BMS cells Adenylosuccinate synthase assessed as adenylosuccinate formation; format: cell-based
Oryctolagus cuniculus = organism: Oryctolagus cuniculus; assay: Inhibition of rabbit muscle Adenylosuccinate synthase assessed as adenylosuccinate formation
Avena fatua [1] = assay: Phytotoxicity against Avena fatua assessed as visual injury at 4.0 kg/ha growth rate treated post-emergence by greenhouse test; format: functional
Amaranthus retroflexus [2] = assay: Phytotoxicity against Amaranthus retroflexus assessed as visual injury at 1.0 kg/ha growth rate treated pre-emergence by greenhouse test; format: functional
Abutilon theophrasti [3] = assay: Phytotoxicity against Abutilon theophrasti assessed as visual injury at 0.5 kg/ha growth rate treated post-emergence by greenhouse test; format: functional
Ipomoea hederacea [4] = assay: Phytotoxicity against Ipomoea hederacea assessed as visual injury at 2.0 kg/ha growth rate treated pre-emergence by greenhouse test; format: functional
Ipomoea hederacea [5] = assay: Phytotoxicity against Ipomoea hederacea assessed as visual injury at 4.0 kg/ha growth rate treated pre-emergence by greenhouse test; format: functional
Helianthus annuus [6] = assay: Phytotoxicity against Helianthus annuus assessed as visual injury at 1.0 kg/ha growth rate treated pre-emergence by greenhouse test; format: functional
Setaria faberi [7] = assay: Phytotoxicity against Setaria faberi assessed as visual injury at 0.5 kg/ha growth rate treated pre-emergence by greenhouse test; format: functional
Avena fatua [8] = assay: Phytotoxicity against Avena fatua assessed as visual injury at 1.0 kg/ha growth rate treated post-emergence by greenhouse test; format: functional
Ipomoea hederacea [9] = assay: Phytotoxicity against Ipomoea hederacea assessed as visual injury at 0.5 kg/ha growth rate treated post-emergence by greenhouse test; format: functional
Alopecurus myosuroides [10] = assay: Phytotoxicity against Alopecurus myosuroides assessed as visual injury at 1.0 kg/ha growth rate treated post-emergence by greenhouse test; format: functional
Alopecurus myosuroides [11] = assay: Phytotoxicity against Alopecurus myosuroides assessed as visual injury at 4.0 kg/ha growth rate treated post-emergence by greenhouse test; format: functional
Echinochloa crus-galli [12] = assay: Phytotoxicity against Echinochloa crusgalli assessed as visual injury at 2.0 kg/ha growth rate treated post-emergence by greenhouse test; format: functional
Abutilon theophrasti [13] = assay: Phytotoxicity against Abutilon theophrasti assessed as visual injury at 4.0 kg/ha growth rate treated post-emergence by greenhouse test; format: functional
Amaranthus retroflexus [14] = assay: Phytotoxicity against Amaranthus retroflexus assessed as visual injury at 0.5 kg/ha growth rate treated pre-emergence by greenhouse test; format: functional
Amaranthus retroflexus [15] = assay: Phytotoxicity against Amaranthus retroflexus assessed as visual injury at 0.5 kg/ha growth rate treated post-emergence by greenhouse test; format: functional
Setaria faberi [16] = assay: Phytotoxicity against Setaria faberi assessed as visual injury at 4.0 kg/ha growth rate treated post-emergence by greenhouse test; format: functional
Amaranthus retroflexus [17] = assay: Phytotoxicity against Amaranthus retroflexus assessed as visual injury at 1.0 kg/ha growth rate treated post-emergence by greenhouse test; format: functional
Echinochloa crus-galli [18] = assay: Phytotoxicity against Echinochloa crusgalli assessed as visual injury at 1.0 kg/ha growth rate treated post-emergence by greenhouse test; format: functional
Amaranthus retroflexus [19] = assay: Phytotoxicity against Amaranthus retroflexus assessed as visual injury at 2.0 kg/ha growth rate treated post-emergence by greenhouse test; format: functional
Ipomoea hederacea [20] = assay: Phytotoxicity against Ipomoea hederacea assessed as visual injury at 1.0 kg/ha growth rate treated post-emergence by greenhouse test; format: functional
Echinochloa crus-galli [21] = assay: Phytotoxicity against Echinochloa crusgalli assessed as visual injury at 4.0 kg/ha growth rate treated post-emergence by greenhouse test; format: functional
Avena fatua [22] = assay: Phytotoxicity against Avena fatua assessed as visual injury at 4.0 kg/ha growth rate treated pre-emergence by greenhouse test; format: functional
Abutilon theophrasti [23] = assay: Phytotoxicity against Abutilon theophrasti assessed as visual injury at 2.0 kg/ha growth rate treated pre-emergence by greenhouse test; format: functional
Alopecurus myosuroides [24] = assay: Phytotoxicity against Alopecurus myosuroides assessed as visual injury at 0.5 kg/ha growth rate treated pre-emergence by greenhouse test; format: functional
Abutilon theophrasti [25] = assay: Phytotoxicity against Abutilon theophrasti assessed as visual injury at 1.0 kg/ha growth rate treated post-emergence by greenhouse test; format: functional
Helianthus annuus [26] = assay: Phytotoxicity against Helianthus annuus assessed as visual injury at 2.0 kg/ha growth rate treated post-emergence by greenhouse test; format: functional
Echinochloa crus-galli [27] = assay: Phytotoxicity against Echinochloa crusgalli assessed as visual injury at 0.5 kg/ha growth rate treated post-emergence by greenhouse test; format: functional
Helianthus annuus [28] = assay: Phytotoxicity against Helianthus annuus assessed as visual injury at 0.5 kg/ha growth rate treated post-emergence by greenhouse test; format: functional
Echinochloa crus-galli [29] = assay: Phytotoxicity against Echinochloa crusgalli assessed as visual injury at 2.0 kg/ha growth rate treated pre-emergence by greenhouse test; format: functional
Alopecurus myosuroides [30] = assay: Phytotoxicity against Alopecurus myosuroides assessed as visual injury at 0.5 kg/ha growth rate treated post-emergence by greenhouse test; format: functional
Abutilon theophrasti [31] = assay: Phytotoxicity against Abutilon theophrasti assessed as visual injury at 4.0 kg/ha growth rate treated pre-emergence by greenhouse test; format: functional
Setaria faberi [32] = assay: Phytotoxicity against Setaria faberi assessed as visual injury at 1.0 kg/ha growth rate treated pre-emergence by greenhouse test; format: functional
Alopecurus myosuroides [33] = assay: Phytotoxicity against Alopecurus myosuroides assessed as visual injury at 2.0 kg/ha growth rate treated pre-emergence by greenhouse test; format: functional
Amaranthus retroflexus [34] = assay: Phytotoxicity against Amaranthus retroflexus assessed as visual injury at 4.0 kg/ha growth rate treated post-emergence by greenhouse test; format: functional
Arabidopsis thaliana [35] = assay: Inhibition of Arabidopsis thaliana root growth; format: functional, organism-based
Ipomoea hederacea [36] = assay: Phytotoxicity against Ipomoea hederacea assessed as visual injury at 1.0 kg/ha growth rate treated pre-emergence by greenhouse test; format: functional
Helianthus annuus [37] = assay: Phytotoxicity against Helianthus annuus assessed as visual injury at 2.0 kg/ha growth rate treated pre-emergence by greenhouse test; format: functional
Alopecurus myosuroides [38] = assay: Phytotoxicity against Alopecurus myosuroides assessed as visual injury at 1.0 kg/ha growth rate treated pre-emergence by greenhouse test; format: functional
Avena fatua [39] = assay: Phytotoxicity against Avena fatua assessed as visual injury at 2.0 kg/ha growth rate treated post-emergence by greenhouse test; format: functional
Ipomoea hederacea [40] = assay: Phytotoxicity against Ipomoea hederacea assessed as visual injury at 4.0 kg/ha growth rate treated post-emergence by greenhouse test; format: functional
Setaria faberi [41] = assay: Phytotoxicity against Setaria faberi assessed as visual injury at 4.0 kg/ha growth rate treated pre-emergence by greenhouse test; format: functional
Arabidopsis thaliana [42] = assay: Metabolite reversal in Arabidopsis thaliana assessed as root growth inhibition in presence of guanine; format: functional, organism-based
Avena fatua [43] = assay: Phytotoxicity against Avena fatua assessed as visual injury at 2.0 kg/ha growth rate treated pre-emergence by greenhouse test; format: functional
Echinochloa crus-galli [44] = assay: Phytotoxicity against Echinochloa crusgalli assessed as visual injury at 0.5 kg/ha growth rate treated pre-emergence by greenhouse test; format: functional
Avena fatua [45] = assay: Phytotoxicity against Avena fatua assessed as visual injury at 0.5 kg/ha growth rate treated post-emergence by greenhouse test; format: functional
Amaranthus retroflexus [46] = assay: Phytotoxicity against Amaranthus retroflexus assessed as visual injury at 4.0 kg/ha growth rate treated pre-emergence by greenhouse test; format: functional
Abutilon theophrasti [47] = assay: Phytotoxicity against Abutilon theophrasti assessed as visual injury at 1.0 kg/ha growth rate treated pre-emergence by greenhouse test; format: functional
Helianthus annuus [48] = assay: Phytotoxicity against Helianthus annuus assessed as visual injury at 4.0 kg/ha growth rate treated post-emergence by greenhouse test; format: functional
Ipomoea hederacea [49] = assay: Phytotoxicity against Ipomoea hederacea assessed as visual injury at 0.5 kg/ha growth rate treated pre-emergence by greenhouse test; format: functional
Abutilon theophrasti [50] = assay: Phytotoxicity against Abutilon theophrasti assessed as visual injury at 2.0 kg/ha growth rate treated post-emergence by greenhouse test; format: functional
Echinochloa crus-galli [51] = assay: Phytotoxicity against Echinochloa crusgalli assessed as visual injury at 1.0 kg/ha growth rate treated pre-emergence by greenhouse test; format: functional
Helianthus annuus [52] = assay: Phytotoxicity against Helianthus annuus assessed as visual injury at 4.0 kg/ha growth rate treated pre-emergence by greenhouse test; format: functional
Setaria faberi [53] = assay: Phytotoxicity against Setaria faberi assessed as visual injury at 2.0 kg/ha growth rate treated pre-emergence by greenhouse test; format: functional
Echinochloa crus-galli [54] = assay: Phytotoxicity against Echinochloa crusgalli assessed as visual injury at 4.0 kg/ha growth rate treated pre-emergence by greenhouse test; format: functional
Ipomoea hederacea [55] = assay: Phytotoxicity against Ipomoea hederacea assessed as visual injury at 2.0 kg/ha growth rate treated post-emergence by greenhouse test; format: functional
Alopecurus myosuroides [56] = assay: Phytotoxicity against Alopecurus myosuroides assessed as visual injury at 4.0 kg/ha growth rate treated pre-emergence by greenhouse test; format: functional
Helianthus annuus [57] = assay: Phytotoxicity against Helianthus annuus assessed as visual injury at 0.5 kg/ha growth rate treated pre-emergence by greenhouse test; format: functional
Arabidopsis thaliana [58] = assay: Metabolite reversal in Arabidopsis thaliana assessed as root growth inhibition in presence of adenine; format: functional, organism-based
Abutilon theophrasti [59] = assay: Phytotoxicity against Abutilon theophrasti assessed as visual injury at 0.5 kg/ha growth rate treated pre-emergence by greenhouse test; format: functional
Setaria faberi [60] = assay: Phytotoxicity against Setaria faberi assessed as visual injury at 2.0 kg/ha growth rate treated post-emergence by greenhouse test; format: functional
Setaria faberi [61] = assay: Phytotoxicity against Setaria faberi assessed as visual injury at 1.0 kg/ha growth rate treated post-emergence by greenhouse test; format: functional
Avena fatua [62] = assay: Phytotoxicity against Avena fatua assessed as visual injury at 0.5 kg/ha growth rate treated pre-emergence by greenhouse test; format: functional
Helianthus annuus [63] = assay: Phytotoxicity against Helianthus annuus assessed as visual injury at 1.0 kg/ha growth rate treated post-emergence by greenhouse test; format: functional
Arabidopsis thaliana [64] = assay: Metabolite reversal in Arabidopsis thaliana assessed as root growth inhibition in presence of adenine and guanine; format: functional, organism-based
Setaria faberi [65] = assay: Phytotoxicity against Setaria faberi assessed as visual injury at 0.5 kg/ha growth rate treated post-emergence by greenhouse test; format: functional
Alopecurus myosuroides [66] = assay: Phytotoxicity against Alopecurus myosuroides assessed as visual injury at 2.0 kg/ha growth rate treated post-emergence by greenhouse test; format: functional
Amaranthus retroflexus [67] = assay: Phytotoxicity against Amaranthus retroflexus assessed as visual injury at 2.0 kg/ha growth rate treated pre-emergence by greenhouse test; format: functional
Avena fatua [68] = assay: Phytotoxicity against Avena fatua assessed as visual injury at 1.0 kg/ha growth rate treated pre-emergence by greenhouse test; format: functional
[69] = Arabidopsis thaliana, read-out: I50

O=C1NC(=O)[C@@]2(N1)O[C@H](COP(=O)(O)O)[C@@H](O)[C@H]2O
Activity (BMS; TDE = time-dependent effect): tde | Activity (Oryctolagus cuniculus; TDE = time-dependent effect): tde

O=c1[nH]ncn1[C@@H]1O[C@H](CO)[C@@H](O)[C@H]1O
Activity (Avena fatua [1]): 60% | Activity (Amaranthus retroflexus [2]): 0% | Activity (Abutilon theophrasti [3]): 85% | Activity (Ipomoea hederacea [4]): 40% | Activity (BMS): inactive | Activity (Ipomoea hederacea [5]): 40% | Activity (Helianthus annuus [6]): 10% | Activity (Setaria faberi [7]): 0% | Activity (Avena fatua [8]): 60% | Activity (Ipomoea hederacea [9]): 75% | Activity (Alopecurus myosuroides [10]): 70% | Activity (Alopecurus myosuroides [11]): 80% | Activity (Echinochloa crus-galli [12]): 85% | Activity (Abutilon theophrasti [13]): 80% | Activity (Amaranthus retroflexus [14]): 0% | Activity (Amaranthus retroflexus [15]): 0% | Activity (Setaria faberi [16]): 85% | Activity (Amaranthus retroflexus [17]): 50% | Activity (Echinochloa crus-galli [18]): 85% | Activity (Amaranthus retroflexus [19]): 50% | Activity (Ipomoea hederacea [20]): 80% | Activity (Echinochloa crus-galli [21]): 90% | Activity (Avena fatua [22]): 0% | Activity (Oryctolagus cuniculus): inactive | Activity (Abutilon theophrasti [23]): 30% | Activity (Alopecurus myosuroides [24]): 0% | Activity (Abutilon theophrasti [25]): 70% | Activity (Helianthus annuus [26]): 95% | Activity (Echinochloa crus-galli [27]): 70% | Activity (Helianthus annuus [28]): 90% | Activity (Echinochloa crus-galli [29]): 0% | Activity (Alopecurus myosuroides [30]): 40% | Activity (Abutilon theophrasti [31]): 65% | Activity (Setaria faberi [32]): 0% | Activity (Alopecurus myosuroides [33]): 35% | Activity (Amaranthus retroflexus [34]): 70% | I50 (Arabidopsis thaliana [35]): 0.04 ppm | IC50 (Arabidopsis thaliana [35]; [69]): 0.2 µM | Activity (Ipomoea hederacea [36]): 25% | Activity (Helianthus annuus [37]): 20% | Activity (Alopecurus myosuroides [38]): 30% | Activity (Avena fatua [39]): 70% | Activity (Ipomoea hederacea [40]): 90% | Activity (Setaria faberi [41]): 0% | Activity (Arabidopsis thaliana [42]): inactive | Activity (Avena fatua [43]): 0% | Activity (Echinochloa crus-galli [44]): 0% | Activity (Avena fatua [45]): 50% | Activity (Amaranthus retroflexus [46]): 0% | Activity (Abutilon theophrasti [47]): 30% | Activity (Helianthus annuus [48]): 95% | Activity (Ipomoea hederacea [49]): 15% | Activity (Abutilon theophrasti [50]): 80% | Activity (Echinochloa crus-galli [51]): 0% | Activity (Helianthus annuus [52]): 60% | Activity (Setaria faberi [53]): 0% | Activity (Echinochloa crus-galli [54]): 0% | Activity (Ipomoea hederacea [55]): 80% | Activity (Alopecurus myosuroides [56]): 40% | Activity (Helianthus annuus [57]): 0% | I50 (Arabidopsis thaliana [58]): 1.8 ppm | IC50 (Arabidopsis thaliana [58]; [69]): 8.3 µM | Activity (Abutilon theophrasti [59]): 15% | Activity (Setaria faberi [60]): 60% | Activity (Setaria faberi [61]): 70% | Activity (Avena fatua [62]): 0% | Activity (Helianthus annuus [63]): 100% | I50 (Arabidopsis thaliana [64]): 2.5 ppm | IC50 (Arabidopsis thaliana [64]; [69]): 11.5 µM | Activity (Setaria faberi [65]): 50% | Activity (Alopecurus myosuroides [66]): 70% | Activity (Amaranthus retroflexus [67]): 0% | Activity (Avena fatua [68]): 0%
